{
  "source": "patent US20250101023A1",
  "about": "“HETEROARYL DERIVATIVE AND USES THEREOF” (IUCF-HYU (INDUSTRY-UNIVERSITY COOPERATION FOUNDATION …, priority 2022, published 2025)",
  "experiment_in_all_cases": "Kinome-wide profiling",
  "format_in_all_cases": "biochemical",
  "conditions_in_all_cases": "read-out: % Residual Activity (mean)",
  "key": {"SBK1": {"target": "SBK1 (Homo sapiens (Human), UniProt Q52WX2)", "sequence (Q52WX2 whole entry)": "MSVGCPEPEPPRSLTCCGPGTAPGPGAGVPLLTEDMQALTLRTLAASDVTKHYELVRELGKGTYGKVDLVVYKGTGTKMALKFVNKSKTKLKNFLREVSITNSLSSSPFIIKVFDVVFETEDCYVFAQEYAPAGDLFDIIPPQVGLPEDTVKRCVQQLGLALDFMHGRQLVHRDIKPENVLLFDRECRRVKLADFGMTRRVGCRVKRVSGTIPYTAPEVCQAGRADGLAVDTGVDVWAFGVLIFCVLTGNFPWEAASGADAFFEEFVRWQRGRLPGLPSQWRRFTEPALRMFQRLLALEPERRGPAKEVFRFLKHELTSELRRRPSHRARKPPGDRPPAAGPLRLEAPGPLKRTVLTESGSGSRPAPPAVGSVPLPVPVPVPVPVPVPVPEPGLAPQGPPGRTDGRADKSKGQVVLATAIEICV"}, "FGR": {"target": "FGR (Homo sapiens (Human), UniProt P09769)"}, "LCK2/ICK": {"target": "LCK2/ICK (Homo sapiens (Human), UniProt Q9UPZ9)"}, "HPK1/MAP4K1": {"target": "HPK1/MAP4K1 (Homo sapiens (Human), UniProt Q92918)"}, "VRK1": {"target": "VRK1 (Homo sapiens (Human), UniProt Q99986)"}, "MEKK2": {"target": "MEKK2 (Homo sapiens (Human), UniProt Q9Y2U5)"}, "CDK2/cyclin A": {"target": "CDK2/cyclin A (Homo sapiens (Human), UniProt P24941)"}, "LCK": {"target": "LCK (Homo sapiens (Human), UniProt P06239)"}, "EPHB3": {"target": "EPHB3 (Homo sapiens (Human), UniProt P54753)", "sequence (P54753 34-998)": "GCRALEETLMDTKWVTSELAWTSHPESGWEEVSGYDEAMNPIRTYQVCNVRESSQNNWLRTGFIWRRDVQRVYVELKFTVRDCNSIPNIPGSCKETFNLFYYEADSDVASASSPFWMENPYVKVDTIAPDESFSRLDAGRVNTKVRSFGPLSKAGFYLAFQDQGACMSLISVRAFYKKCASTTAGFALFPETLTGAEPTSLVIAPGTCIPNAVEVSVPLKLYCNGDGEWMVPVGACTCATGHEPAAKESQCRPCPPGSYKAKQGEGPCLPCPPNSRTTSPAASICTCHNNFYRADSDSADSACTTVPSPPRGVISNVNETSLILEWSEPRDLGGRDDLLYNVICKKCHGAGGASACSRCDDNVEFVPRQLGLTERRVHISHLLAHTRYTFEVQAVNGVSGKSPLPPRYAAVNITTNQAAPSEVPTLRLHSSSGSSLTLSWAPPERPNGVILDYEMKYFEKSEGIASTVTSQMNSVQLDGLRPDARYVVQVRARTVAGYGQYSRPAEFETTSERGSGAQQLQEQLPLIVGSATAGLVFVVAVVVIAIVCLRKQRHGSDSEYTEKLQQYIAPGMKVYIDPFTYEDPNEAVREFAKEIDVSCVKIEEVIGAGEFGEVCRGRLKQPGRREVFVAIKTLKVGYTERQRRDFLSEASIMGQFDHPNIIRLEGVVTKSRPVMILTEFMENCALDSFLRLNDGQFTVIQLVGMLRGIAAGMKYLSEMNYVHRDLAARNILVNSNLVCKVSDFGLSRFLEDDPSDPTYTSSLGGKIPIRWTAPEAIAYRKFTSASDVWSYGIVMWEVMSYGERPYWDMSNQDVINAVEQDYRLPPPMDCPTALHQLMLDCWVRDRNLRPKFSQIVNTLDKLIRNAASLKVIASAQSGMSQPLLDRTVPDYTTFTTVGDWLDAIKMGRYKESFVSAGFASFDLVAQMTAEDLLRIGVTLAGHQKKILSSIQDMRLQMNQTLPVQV"}, "CDK1/cyclin E": {"target": "CDK1/cyclin E (Homo sapiens (Human), UniProt P06493)"}, "PBK/TOPK": {"target": "PBK/TOPK (Homo sapiens (Human), UniProt Q96KB5)", "sequence (Q96KB5 whole entry)": "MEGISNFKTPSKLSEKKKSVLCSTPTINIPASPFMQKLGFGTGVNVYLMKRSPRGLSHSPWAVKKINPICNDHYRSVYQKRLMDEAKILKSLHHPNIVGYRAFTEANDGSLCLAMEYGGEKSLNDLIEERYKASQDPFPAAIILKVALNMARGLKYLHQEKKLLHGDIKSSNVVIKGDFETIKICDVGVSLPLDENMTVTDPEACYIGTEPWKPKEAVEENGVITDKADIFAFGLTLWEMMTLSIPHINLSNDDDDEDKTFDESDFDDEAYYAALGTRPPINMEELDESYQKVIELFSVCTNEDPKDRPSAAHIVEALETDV"}, "CDK1/cyclin A": {"target": "CDK1/cyclin A (Homo sapiens (Human), UniProt P06493)"}, "CAMK1g": {"target": "CAMK1g (Homo sapiens (Human), UniProt Q96NX5)"}, "IGF1R": {"target": "IGF1R (Homo sapiens (Human), UniProt P08069)"}, "BMPR2": {"target": "BMPR2 (Homo sapiens (Human), UniProt Q13873)"}, "IRAK1": {"target": "IRAK1 (Homo sapiens (Human), UniProt P51617)"}, "PKCepsilon": {"target": "PKCepsilon (Homo sapiens (Human), UniProt Q02156)"}, "PKAcg": {"target": "PKAcg (Homo sapiens (Human), UniProt P22612)"}, "BRK": {"target": "BRK (Homo sapiens (Human), UniProt Q13882)"}, "FLT4/VEGFR3": {"target": "FLT4/VEGFR3 (Homo sapiens (Human), UniProt P35916)"}, "TRKB": {"target": "TRKB (Homo sapiens (Human), UniProt Q16620)", "sequence (Q16620 32-822)": "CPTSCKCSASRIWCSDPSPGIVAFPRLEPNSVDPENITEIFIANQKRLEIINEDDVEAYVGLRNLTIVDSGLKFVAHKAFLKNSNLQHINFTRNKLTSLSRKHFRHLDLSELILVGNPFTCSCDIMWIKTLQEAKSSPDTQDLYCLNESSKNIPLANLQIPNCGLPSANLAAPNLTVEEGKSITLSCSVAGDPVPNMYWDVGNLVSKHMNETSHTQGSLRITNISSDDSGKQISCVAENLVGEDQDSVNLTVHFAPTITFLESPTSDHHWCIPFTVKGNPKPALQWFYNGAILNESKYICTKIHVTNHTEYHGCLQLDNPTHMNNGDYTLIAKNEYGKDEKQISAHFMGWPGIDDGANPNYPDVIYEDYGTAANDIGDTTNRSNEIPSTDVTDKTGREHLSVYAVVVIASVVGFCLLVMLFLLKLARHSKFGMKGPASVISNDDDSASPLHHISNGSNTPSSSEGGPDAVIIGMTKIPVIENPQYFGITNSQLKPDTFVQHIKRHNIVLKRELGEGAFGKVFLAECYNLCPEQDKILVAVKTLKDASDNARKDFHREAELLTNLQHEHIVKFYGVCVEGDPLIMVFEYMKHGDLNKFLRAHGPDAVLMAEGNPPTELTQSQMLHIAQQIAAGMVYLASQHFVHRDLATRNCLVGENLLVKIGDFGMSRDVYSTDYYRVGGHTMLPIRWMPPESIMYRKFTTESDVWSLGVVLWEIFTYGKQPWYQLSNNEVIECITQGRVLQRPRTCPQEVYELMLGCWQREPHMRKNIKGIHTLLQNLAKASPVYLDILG"}, "CHK2": {"target": "CHK2 (Homo sapiens (Human), UniProt O96017)"}, "FGFR1": {"target": "FGFR1 (Homo sapiens (Human), UniProt P11362)"}, "FGFR4": {"target": "FGFR4 (Homo sapiens (Human), UniProt P22455)"}, "ZIPK/DAPK3": {"target": "ZIPK/DAPK3 (Homo sapiens (Human), UniProt O43293)"}, "ARAF": {"target": "ARAF (Homo sapiens (Human), UniProt P10398)"}, "NEK1": {"target": "NEK1 (Homo sapiens (Human), UniProt Q96PY6)"}, "DYRK1/DYRKIA": {"target": "DYRK1/DYRKIA (Homo sapiens (Human), UniProt Q13627)"}, "ERN2/IRE2": {"target": "ERN2/IRE2 (Homo sapiens (Human), UniProt Q76MJ5)", "sequence (Q76MJ5 35-926)": "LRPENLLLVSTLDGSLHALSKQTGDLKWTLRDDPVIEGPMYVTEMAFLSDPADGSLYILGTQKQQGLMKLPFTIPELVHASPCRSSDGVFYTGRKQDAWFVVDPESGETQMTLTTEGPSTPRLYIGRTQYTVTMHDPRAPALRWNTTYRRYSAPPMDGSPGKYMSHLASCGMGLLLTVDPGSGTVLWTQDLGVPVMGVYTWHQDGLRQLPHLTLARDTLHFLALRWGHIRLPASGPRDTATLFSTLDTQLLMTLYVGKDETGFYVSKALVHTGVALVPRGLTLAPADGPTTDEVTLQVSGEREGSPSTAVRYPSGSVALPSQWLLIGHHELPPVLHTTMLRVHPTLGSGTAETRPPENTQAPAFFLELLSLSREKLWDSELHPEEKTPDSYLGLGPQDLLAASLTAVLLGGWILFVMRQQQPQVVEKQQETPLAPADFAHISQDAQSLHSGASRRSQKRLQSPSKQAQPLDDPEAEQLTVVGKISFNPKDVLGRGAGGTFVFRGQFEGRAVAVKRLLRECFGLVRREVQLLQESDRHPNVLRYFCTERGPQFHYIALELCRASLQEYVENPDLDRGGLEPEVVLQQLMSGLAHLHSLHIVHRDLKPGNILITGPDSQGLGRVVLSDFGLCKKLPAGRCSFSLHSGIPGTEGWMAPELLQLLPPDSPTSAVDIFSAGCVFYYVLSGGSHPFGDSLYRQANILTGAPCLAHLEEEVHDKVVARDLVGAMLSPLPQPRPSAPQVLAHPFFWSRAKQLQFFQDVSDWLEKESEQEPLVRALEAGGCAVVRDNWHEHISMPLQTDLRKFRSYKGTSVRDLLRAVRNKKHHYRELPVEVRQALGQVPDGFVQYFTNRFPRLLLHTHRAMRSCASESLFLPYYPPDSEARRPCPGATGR"}, "GRK4": {"target": "GRK4 (Homo sapiens (Human), UniProt P32298)"}, "RIPK5": {"target": "RIPK5 (Homo sapiens (Human), UniProt Q6XUX3)"}, "FAK/PTK2": {"target": "FAK/PTK2 (Homo sapiens (Human), UniProt Q05397)"}, "ACK1": {"target": "ACK1 (Homo sapiens (Human), UniProt Q07912)"}, "CDK4/cyclin D1": {"target": "CDK4/cyclin D1 (Homo sapiens (Human), UniProt P11802)"}, "PKA": {"target": "PKA (Homo sapiens (Human), UniProt P17612)"}, "CLK2": {"target": "CLK2 (Homo sapiens (Human), UniProt P49760)"}, "GSK3b": {"target": "GSK3b (Homo sapiens (Human), UniProt P49841)"}, "YES/YES1": {"target": "YES/YES1 (Homo sapiens (Human), UniProt P07947)"}, "ALK": {"target": "ALK (Homo sapiens (Human), UniProt Q9UM73)", "sequence (Q9UM73 19-1620)": "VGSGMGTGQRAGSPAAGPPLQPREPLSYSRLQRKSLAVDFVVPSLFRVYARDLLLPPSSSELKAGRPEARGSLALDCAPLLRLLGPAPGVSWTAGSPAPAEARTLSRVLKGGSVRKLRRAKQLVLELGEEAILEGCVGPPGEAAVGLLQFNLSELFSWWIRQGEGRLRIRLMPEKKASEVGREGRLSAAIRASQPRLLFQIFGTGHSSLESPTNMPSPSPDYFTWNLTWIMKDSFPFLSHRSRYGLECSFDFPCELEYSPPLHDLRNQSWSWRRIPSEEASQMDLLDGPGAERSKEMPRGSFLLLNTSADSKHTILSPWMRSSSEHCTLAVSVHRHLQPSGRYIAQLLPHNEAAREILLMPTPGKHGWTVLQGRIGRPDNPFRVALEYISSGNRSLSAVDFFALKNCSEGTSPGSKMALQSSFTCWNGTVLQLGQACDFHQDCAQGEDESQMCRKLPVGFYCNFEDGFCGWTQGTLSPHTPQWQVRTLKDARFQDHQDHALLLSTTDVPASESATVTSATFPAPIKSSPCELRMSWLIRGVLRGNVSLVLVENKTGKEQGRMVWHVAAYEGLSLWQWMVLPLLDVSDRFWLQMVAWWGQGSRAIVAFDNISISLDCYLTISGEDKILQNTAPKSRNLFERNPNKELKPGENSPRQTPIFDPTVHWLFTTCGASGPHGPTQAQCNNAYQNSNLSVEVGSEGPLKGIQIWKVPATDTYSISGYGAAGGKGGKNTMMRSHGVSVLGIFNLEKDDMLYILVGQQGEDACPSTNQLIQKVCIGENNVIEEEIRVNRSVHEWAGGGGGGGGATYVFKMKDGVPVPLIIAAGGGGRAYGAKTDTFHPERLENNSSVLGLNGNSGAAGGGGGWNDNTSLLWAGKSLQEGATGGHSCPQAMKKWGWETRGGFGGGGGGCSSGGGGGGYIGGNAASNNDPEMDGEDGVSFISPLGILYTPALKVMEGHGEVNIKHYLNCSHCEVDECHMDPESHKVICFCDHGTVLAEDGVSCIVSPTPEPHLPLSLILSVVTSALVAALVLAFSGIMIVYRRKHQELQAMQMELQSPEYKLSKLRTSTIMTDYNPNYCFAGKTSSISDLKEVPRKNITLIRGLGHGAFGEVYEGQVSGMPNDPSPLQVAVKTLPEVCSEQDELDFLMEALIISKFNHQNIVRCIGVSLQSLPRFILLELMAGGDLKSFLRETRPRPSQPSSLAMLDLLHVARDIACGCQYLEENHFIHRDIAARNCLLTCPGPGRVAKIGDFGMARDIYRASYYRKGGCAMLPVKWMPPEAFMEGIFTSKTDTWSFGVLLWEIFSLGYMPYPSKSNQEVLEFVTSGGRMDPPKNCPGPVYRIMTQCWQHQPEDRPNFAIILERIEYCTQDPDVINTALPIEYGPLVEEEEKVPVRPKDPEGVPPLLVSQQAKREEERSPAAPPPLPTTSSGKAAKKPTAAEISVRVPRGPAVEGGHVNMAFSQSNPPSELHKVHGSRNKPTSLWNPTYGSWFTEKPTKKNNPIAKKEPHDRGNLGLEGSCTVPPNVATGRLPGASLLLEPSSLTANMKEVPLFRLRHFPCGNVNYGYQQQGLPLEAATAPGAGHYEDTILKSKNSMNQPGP"}},
  "data": [
    {"smiles": "CCn1cnc2c(NCc3ccc(-c4ccccn4)nc3)nc(-c3ccc(N)nc3)nc21", "note": "[Example 53, N-([2,2′-bipyridin]-5-ylmethyl)-2-(6-aminopyridin-3-yl)-9-ethyl-9H-purin-6-amine]", "values": [
      {"measurement": "remaining activity at 10 µM", "setting": "SBK1", "result": 94.5, "unit": "%"},
      {"measurement": "remaining activity at 10 µM", "setting": "FGR", "result": 54.6, "unit": "%"},
      {"measurement": "remaining activity at 10 µM", "setting": "LCK2/ICK", "result": 39.6, "unit": "%"},
      {"measurement": "remaining activity at 10 µM", "setting": "HPK1/MAP4K1", "result": 30.2, "unit": "%"},
      {"measurement": "remaining activity at 10 µM", "setting": "VRK1", "result": 87.3, "unit": "%"},
      {"measurement": "remaining activity at 10 µM", "setting": "MEKK2", "result": 90, "unit": "%"},
      {"measurement": "remaining activity at 10 µM", "setting": "CDK2/cyclin A", "result": 1.19, "unit": "%"},
      {"measurement": "remaining activity at 10 µM", "setting": "LCK", "result": 83.6, "unit": "%"},
      {"measurement": "remaining activity at 10 µM", "setting": "EPHB3", "result": 66, "unit": "%"},
      {"measurement": "remaining activity at 10 µM", "setting": "CDK1/cyclin E", "result": 7.49, "unit": "%"},
      {"measurement": "remaining activity at 10 µM", "setting": "PBK/TOPK", "result": 93.5, "unit": "%"},
      {"measurement": "remaining activity at 10 µM", "setting": "CDK1/cyclin A", "result": 4.65, "unit": "%"},
      {"measurement": "remaining activity at 10 µM", "setting": "CAMK1g", "result": 54.3, "unit": "%"},
      {"measurement": "remaining activity at 10 µM", "setting": "IGF1R", "result": 58, "unit": "%"},
      {"measurement": "remaining activity at 10 µM", "setting": "BMPR2", "result": 52.4, "unit": "%"},
      {"measurement": "remaining activity at 10 µM", "setting": "IRAK1", "result": 79, "unit": "%"},
      {"measurement": "remaining activity at 10 µM", "setting": "PKCepsilon", "result": 94.1, "unit": "%"},
      {"measurement": "remaining activity at 10 µM", "setting": "PKAcg", "result": 88.4, "unit": "%"},
      {"measurement": "remaining activity at 10 µM", "setting": "BRK", "result": 46.6, "unit": "%"},
      {"measurement": "remaining activity at 10 µM", "setting": "FLT4/VEGFR3", "result": 10, "unit": "%"},
      {"measurement": "remaining activity at 10 µM", "setting": "TRKB", "result": 16.5, "unit": "%"},
      {"measurement": "remaining activity at 10 µM", "setting": "CHK2", "result": 7.39, "unit": "%"},
      {"measurement": "remaining activity at 10 µM", "setting": "FGFR1", "result": 28.8, "unit": "%"},
      {"measurement": "remaining activity at 10 µM", "setting": "FGFR4", "result": 87.4, "unit": "%"},
      {"measurement": "remaining activity at 10 µM", "setting": "ZIPK/DAPK3", "result": 80.8, "unit": "%"},
      {"measurement": "remaining activity at 10 µM", "setting": "ARAF", "result": 79.5, "unit": "%"},
      {"measurement": "remaining activity at 10 µM", "setting": "NEK1", "result": 92.3, "unit": "%"},
      {"measurement": "remaining activity at 10 µM", "setting": "DYRK1/DYRKIA", "result": 3.85, "unit": "%"},
      {"measurement": "remaining activity at 10 µM", "setting": "ERN2/IRE2", "result": 65.4, "unit": "%"},
      {"measurement": "remaining activity at 10 µM", "setting": "GRK4", "result": 88.3, "unit": "%"},
      {"measurement": "remaining activity at 10 µM", "setting": "RIPK5", "result": 67.8, "unit": "%"},
      {"measurement": "remaining activity at 10 µM", "setting": "FAK/PTK2", "result": 52.5, "unit": "%"},
      {"measurement": "remaining activity at 10 µM", "setting": "ACK1", "result": 13.7, "unit": "%"},
      {"measurement": "remaining activity at 10 µM", "setting": "CDK4/cyclin D1", "result": 33.5, "unit": "%"},
      {"measurement": "remaining activity at 10 µM", "setting": "PKA", "result": 93.1, "unit": "%"},
      {"measurement": "remaining activity at 10 µM", "setting": "CLK2", "result": 11.7, "unit": "%"},
      {"measurement": "remaining activity at 10 µM", "setting": "GSK3b", "result": 5.76, "unit": "%"},
      {"measurement": "remaining activity at 10 µM", "setting": "YES/YES1", "result": 20.6, "unit": "%"},
      {"measurement": "remaining activity at 10 µM", "setting": "ALK", "result": 59.7, "unit": "%"}
    ]}
  ]
}
